Experiment: Solubility of N-cyanomethyl-4-(trifluoromethyl)nicotinamide in salt solutions (HPLC of filtrate)
Format: physicochemical
Details: for Amount of N-cyanomethyl-4-(trifluoromethyl)nicotinamide in Salt Solutions After Filtration: about 18 hours at ambient temperature
Method: In order to determine the effectiveness of a salt to decrease the solubility of N-cyanomethyl-4-(trifluoromethyl)nicotinamide in aqueous solutions, the following tests were conducted:
A salt solution consisting of two grams of a salt dissolved in ten grams of water was prepared. Fifty milligrams of N-cyanomethyl-4-(trifluoromethyl)nicotinamide was added and the resulting mixture was subjected to sonication until all the N-cyanomethyl-4-(trifluoromethyl)nicotinamide had dissolved. The solutions were allowed to stand at ambient temperature for about 18 hours. Each solution was filtered and the filtrate was analyzed by HPLC to determine the amount of N-cyanomethyl-4-(trifluoromethyl)nicotinamide which remained dissolved in the water. An experiment in which no salt was added was included as a control.

## N#CCNC(=O)c1cnccc1C(F)(F)F [N-cyanomethyl-4-(trifluoromethyl)nicotinamide]
Control, no salt, 50 mg added to 10 g water
  Amount of N-cyanomethyl-4-(trifluoromethyl)nicotinamide in Salt Solutions After Filtration: 50.0 mg
Magnesium Sulfate (Anhydrous), 2 g in 10 g water, 50 mg added
  Amount of N-cyanomethyl-4-(trifluoromethyl)nicotinamide in Salt Solutions After Filtration: 7.0 mg
Sodium Sulfate, 2 g in 10 g water, 50 mg added
  Amount of N-cyanomethyl-4-(trifluoromethyl)nicotinamide in Salt Solutions After Filtration: 10.0 mg
Concentration of 20% magnesium sulfate
  Reduction of solubility in an aqueous solution: over 90%
Sodium sulfate
  Reduction of solubility in an aqueous solution: 80%

Source: patent US11006630B2, “Stable suspension concentrate formulation for water-soluble compounds” (FMC Corporation, priority 2006, dated 2021)
